Tests used:
[1] = cited from earlier work; for temperature at which Tm and Tg curves cross (Tg′): phase diagram, FIG. 6; for Tg′: α-(1→4)-linked glucose hexamers, Levine and Slade
[2] = system: metaphase II mouse oocytes; assay: fertilization and blastocyst development of fresh oocytes cultured in modified HTF media; format: cell-based
Method: Thus, a hypertonic media for the culturing of certain recovered cells was developed using a two-prong approach. First, a standard culture medium called HTF (human tubal fluid medium) was modified to minimize the concentration of electrolytes (see FIG. 7, components marked with down arrows) and to increase other nutrients and amino acids (see FIG. 7, components marked with up arrows). The osmolarity of this medium was determined using an osmometer. Because the osmolarity of this medium was approximately 285 mosm, which is close to the normal internal osmolarity of cells, this medium is called modified HTF, isotonic. Second, the water content of the medium was reduced to equally increase the concentrations of each component to achieve a final osmolarity of 320 mosm. This medium is called modified HTF, hypertonic, (see FIG. 7, last column).
To test the ability of modified HTF, isotonic and hypertonic media to support the fertilization and development of oocytes, these medias were used to culture fresh mouse metaphase II oocytes that had not been cyropreserved. […] If desired, the composition and hypertonicity of the culture medium may be further optimized to increase the number of blastocysts or viable offspring that are formed. For example, a culture medium having a higher osmolarity (such as 330, 340, 350, 360, 370, or 380 mosm) may better mimic oviductal fluid (which may have an osmolarity of at least 360 mosm) and thus further promote development of viable offspring (Van Winkle et al., J. Expt Zool. 253:215-219, 1990). Any other suitable hypertonic media with a osmolarity of at least 300, 310, 320, 330, 340, 350, 360, 370, 380, or more mosm may be used in preferred methods for culturing cells in vitro. These methods may be used to culture cells with or without intracellular sugar. These preferred medias may also be used before, during, or after storage of cryopreserved cells.

[3] = system: metaphase II mouse oocytes; assay: survival of cooled oocytes after overnight culture in modified HTF, hypertonic media (live/dead assay); format: cell-based
Method: (§1) Once the cell is prepared for storage, it is stored in a manner appropriate to its preparation. Frozen cells can be stored at cryogenic temperatures and dried cells can be dry stored at ambient or other temperatures as appropriate. Recovery of stored cells is geared to the method of their preparation for storage. Dried cells are rehydrated, and frozen cells are thawed. Preferably, at least 25, 35, 50, 60, 70, 80, 90, 95, or 100% of the recovered cells are viable. Cell viability may be measured using any standard assay, such as a “live/dead” assay using the green dye calcein-AM to indicate viable cells and the red dye ethidium homodimer to indicate dead cells, according to the manufacturer's protocol (Molecular Probes, Inc.). In another preferred embodiment, at least 5, 10, 15, 25, 35, 50, 60, 70, 80, 90, or 95% of the recovered oocytes may be fertilized using standard in vitro fertilization techniques (see, for example, Summers et al., Biol. Reprod. 53:431-437, 1995). Preferably, the fertilized oocytes develop into 2-cell stage embryos, 4-cell stage embryos, morula-stage embryos, blastocyst-stage embryos, fetal-stage embryos, or viable offspring.
FIGS. 9A and 9B are a set of graphs showing the survival of cooled metaphase II mouse oocytes after overnight culture in modified HTF, hypertonic media as a function of extracellular trehalose concentration at −15° and −30°, respectively. These experiments were performed using a cooling rate of 1° C./min, with or without approximately 0.10 to 0.15 M intracellular trehalose. Cell viability was assessed using the live/dead assay described herein. […] As the extracellular amount of trehalose in the freezing solution was increased from 0.15 M (approximately the same amount as the intracellular trehalose) to 0.30 M or 0.50 M, the survival rate improved from about 18, to 55 or 85%, respectively.

[4] = system: metaphase II mouse oocytes; assay: survival of cooled oocytes after overnight culture in modified HTF media, isotonic (live/dead assay); format: cell-based; details: 0.50 M extracellular trehalose only; very slow cooling to −60° C.
Method: as §1
Cell survival was measured using the live/dead assay. […] In FIG. 10, oocytes were cooled at a very slow cooling rate to an intermediate temperature (−60° C.). […]

oocytes = assay: cryomicroscopy: cumulative incidence of intracellular ice during cooling; format: cell-based; details: cooling 3.5° C./min
Method: FIG. 13 is a graph with a set of curves showing the percentage of oocytes that have intracellular ice at various temperatures. For this assay, standard cryomicroscopy procedures were used to cool oocytes at a rate of 3.5° C./min (Cosman et al., Cryo-Letters 10:17-38, 1989). The oocytes were observed using a cryomicroscope to determine whether intracellular ice had formed. The presence of intracellular ice was easily detected based on the black color that appeared due to the light scattered by the ice crystals. This assay was used to test control oocytes incubated in isotonic media alone, oocytes incubated in media with 0.1 M extracellular trehalose, and oocytes injected with 0.1 M trehalose and incubated in media with 0.1 M extracellular trehalose. […] In the field of cryobiology, it has been established that the faster the cooling rate without formation of lethal intracellular ice, the greater the chance of cell survival.

[5] = oocytes injected with 0.07 M trehalose, modified HTF, hypertonic media

In the case of `C[S+](C)[O-]` [DMSO, dimethyl sulfoxide], the “temperature at which Tm and Tg curves cross (Tg′)” value [1] is listed as “approximately −80 °C”.

With `OC[C@H]1O[C@H](O[C@H]2O[C@H](CO)[C@@H](O)[C@H](O)[C@H]2O)[C@H](O)[C@@H](O)[C@@H]1O` [trehalose] the “frequency of blastocyst formation” value ([2]; intracellular trehalose 0.15 M) was “reduced, but still significant”, the frequency of fertilization ([2]; intracellular trehalose 0.15 M) was “reduced, but still significant” and the “frequency of blastocyst development” value [2, 5] was “high frequency”. For the same molecule, the frequency of fertilization [2, 5] was “high frequency”, the survival rate ([3]; 0.15 M extracellular trehalose in freezing solution, with approximately 0.10 to 0.15 M intracellular trehalose, cooling 1° C./min) was “about 18%” and the survival rate ([3]; 0.30 M extracellular trehalose in freezing solution, with approximately 0.10 to 0.15 M intracellular trehalose, cooling 1° C./min) was about 55%. For the same molecule, the survival rate ([3]; 0.50 M extracellular trehalose in freezing solution, with approximately 0.10 to 0.15 M intracellular trehalose, cooling 1° C./min) was about 85%, the survival rate ([3]; cooled to −15° C. at 1° C./min, approximately 0.10 to 0.15 M intracellular trehalose versus none) was “dramatically increased” and the survival rate ([3]; cooled to −30° C. at 1° C./min, approximately 0.10 to 0.15 M intracellular trehalose versus none) was “dramatically increased”. The survival rate [4] was “some improvement over the control”, the “incidence of intracellular ice formation” value (oocytes; 0.1 M extracellular trehalose versus isotonic media alone) was “reduced” and the “frequency of intracellular ice” value (oocytes; 0.1 M injected trehalose plus 0.1 M extracellular trehalose) was “further reduced”. For the same molecule, the “temperature at which Tm and Tg curves cross (Tg′)” value [1] was “approximately −30 °C”.

For cyclodextrin, the “Tg′” value [1] is listed as −9 °C.

For maltohexaose, the “Tg′” value [1] is given as −14.5 °C.

Reference: patent US6673607B2, “Microinjection of cryoprotectants for preservation of cells” (priority 2000, dated 2004)
